# Reference: ChEMBL document CHEMBL2203177, “Tuning the activity of a short arg-trp antimicrobial Peptide by lipidation of a C- or N-terminal lysine side-chain” (ACS Med Chem Lett, 2012)
# Peptide text beside a SMILES is read from it. * marks the point of attachment. Myristoyl = CCCCCCCCCCCCCC(=O)*; Lauroyl = CCCCCCCCCCCC(=O)*; Decanoyl = CCCCCCCCCC(=O)*; Hexanoyl = CCCCCC(=O)*; Butyryl = CCCC(=O)*
# Legend:
# Acinetobacter baumannii = assay: Antibacterial activity against Acinetobacter baumannii DSM 30007 assessed as growth inhibition after 18 hrs; format: functional; settings: DSM 30007, 18 h
# Staphylococcus aureus [1] = assay: Antibacterial activity against Staphylococcus aureus DSM 20231 assessed as growth inhibition after 18 hrs; format: functional; settings: DSM 20231, 18 h
# Bacillus subtilis [2] = assay: Bactericidal activity against Bacillus subtilis 168 (trpC2)2 assessed as survival rate at twice MIC concentration incubated for 15 mins measured after 18 hrs; format: functional, subsp. subtilis str. 168 (trpC2)2
# [3] = Hemolytic activity against human RBC assessed as hemoglobin leakage at 250 ug/ml; format: ADME, cell-based, Erythrocyte; settings: human red blood cells, read-out: Activity
# Staphylococcus aureus [4] = assay: Antibacterial activity against Staphylococcus aureus ATCC 43300 assessed as growth inhibition after 18 hrs; format: functional; settings: ATCC 43300, 18 h
# Pseudomonas aeruginosa = assay: Antibacterial activity against Pseudomonas aeruginosa DSM 50071 assessed as growth inhibition after 18 hrs; format: functional; settings: DSM 50071, 18 h
# Bacillus subtilis [5] = assay: Antibacterial activity against Bacillus subtilis 168 DSM 402 assessed as growth inhibition after 18 hrs; format: functional; settings: subsp. subtilis str. 168 DSM 402, 18 h
# Escherichia coli = assay: Antibacterial activity against Escherichia coli DSM 30083 assessed as growth inhibition after 18 hrs; format: functional; settings: DSM 30083, 18 h
smiles,measurement,setting,value
CCCCCCCCCCCCCC(=O)NCCCC[C@H](NC(=O)[C@H](Cc1c[nH]c2ccccc12)NC(=O)[C@H](CCCNC(=N)N)NC(=O)[C@H](Cc1c[nH]c2ccccc12)NC(=O)[C@H](CCCNC(=N)N)NC(=O)[C@H](Cc1c[nH]c2ccccc12)NC(=O)[C@@H](N)CCCNC(=N)N)C(N)=O (H-RWRWRWK(Myristoyl)-NH2),MIC,Acinetobacter baumannii,9 µM
same,MIC,Staphylococcus aureus [1],2 µM
same,Survival,Bacillus subtilis [2],0%
same,hemolysis at 250 ug/ml,[3],> 50%
same,MIC,Staphylococcus aureus [4],2 µM
same,MIC,Pseudomonas aeruginosa,70 µM
same,MIC,Bacillus subtilis [5],4 µM
same,MIC,Escherichia coli,17 µM
N=C(N)NCCC[C@H](NC(=O)[C@H](Cc1c[nH]c2ccccc12)NC(=O)[C@H](CCCNC(=N)N)NC(=O)[C@H](Cc1c[nH]c2ccccc12)NC(=O)[C@@H](N)CCCNC(=N)N)C(=O)N[C@@H](Cc1c[nH]c2ccccc12)C(=O)N[C@@H](CCCCN)C(N)=O (H-RWRWRWK-NH2),MIC,Acinetobacter baumannii,> 100 µM
same,MIC,Staphylococcus aureus [1],37 µM
same,hemolysis at 250 ug/ml,[3],< 10%
same,MIC,Staphylococcus aureus [4],18 µM
same,MIC,Pseudomonas aeruginosa,> 100 µM
same,MIC,Bacillus subtilis [5],5 µM
same,MIC,Escherichia coli,18 µM
CCCCCCCCCC(=O)NCCCC[C@H](N)C(=O)N[C@@H](CCCNC(=N)N)C(=O)N[C@@H](Cc1c[nH]c2ccccc12)C(=O)N[C@@H](CCCNC(=N)N)C(=O)N[C@@H](Cc1c[nH]c2ccccc12)C(=O)N[C@@H](CCCNC(=N)N)C(=O)N[C@@H](Cc1c[nH]c2ccccc12)C(N)=O (H-K(Decanoyl)RWRWRW-NH2),MIC,Acinetobacter baumannii,9 µM
same,MIC,Staphylococcus aureus [1],2 µM
same,Survival,Bacillus subtilis [2],0.016%
same,hemolysis at 250 ug/ml,[3],> 50%
same,MIC,Staphylococcus aureus [4],1 µM
same,MIC,Pseudomonas aeruginosa,9 µM
same,MIC,Bacillus subtilis [5],2 µM
same,MIC,Escherichia coli,5 µM
CCCCCCCCCCCC(=O)NCCCC[C@H](NC(=O)[C@H](Cc1c[nH]c2ccccc12)NC(=O)[C@H](CCCNC(=N)N)NC(=O)[C@H](Cc1c[nH]c2ccccc12)NC(=O)[C@H](CCCNC(=N)N)NC(=O)[C@H](Cc1c[nH]c2ccccc12)NC(=O)[C@@H](N)CCCNC(=N)N)C(N)=O (H-RWRWRWK(Lauroyl)-NH2),MIC,Acinetobacter baumannii,9 µM
same,MIC,Staphylococcus aureus [1],1 µM
same,Survival,Bacillus subtilis [2],0.004%
same,hemolysis at 250 ug/ml,[3],> 50%
same,MIC,Staphylococcus aureus [4],1 µM
same,MIC,Pseudomonas aeruginosa,18 µM
same,MIC,Bacillus subtilis [5],1 µM
same,MIC,Escherichia coli,4 µM
CCCCCC(=O)NCCCC[C@H](N)C(=O)N[C@@H](CCCNC(=N)N)C(=O)N[C@@H](Cc1c[nH]c2ccccc12)C(=O)N[C@@H](CCCNC(=N)N)C(=O)N[C@@H](Cc1c[nH]c2ccccc12)C(=O)N[C@@H](CCCNC(=N)N)C(=O)N[C@@H](Cc1c[nH]c2ccccc12)C(N)=O (H-K(Hexanoyl)RWRWRW-NH2),MIC,Acinetobacter baumannii,9 µM
same,MIC,Staphylococcus aureus [1],5 µM
same,Survival,Bacillus subtilis [2],0.211%
same,hemolysis at 250 ug/ml,[3],< 10%
same,MIC,Staphylococcus aureus [4],5 µM
same,MIC,Pseudomonas aeruginosa,37 µM
same,MIC,Bacillus subtilis [5],0.6 µM
same,MIC,Escherichia coli,9 µM
CC(=O)NCCCC[C@H](N)C(=O)N[C@@H](CCCNC(=N)N)C(=O)N[C@@H](Cc1c[nH]c2ccccc12)C(=O)N[C@@H](CCCNC(=N)N)C(=O)N[C@@H](Cc1c[nH]c2ccccc12)C(=O)N[C@@H](CCCNC(=N)N)C(=O)N[C@@H](Cc1c[nH]c2ccccc12)C(N)=O (H-K(Ac)RWRWRW-NH2),MIC,Acinetobacter baumannii,> 100 µM
same,MIC,Staphylococcus aureus [1],> 100 µM
same,hemolysis at 250 ug/ml,[3],< 10%
same,MIC,Staphylococcus aureus [4],> 100 µM
same,MIC,Pseudomonas aeruginosa,> 100 µM
same,MIC,Bacillus subtilis [5],10 µM
same,MIC,Escherichia coli,> 100 µM
CCCCCCCCCC(=O)NCCCC[C@H](NC(=O)[C@H](Cc1c[nH]c2ccccc12)NC(=O)[C@H](CCCNC(=N)N)NC(=O)[C@H](Cc1c[nH]c2ccccc12)NC(=O)[C@H](CCCNC(=N)N)NC(=O)[C@H](Cc1c[nH]c2ccccc12)NC(=O)[C@@H](N)CCCNC(=N)N)C(N)=O (H-RWRWRWK(Decanoyl)-NH2),MIC,Acinetobacter baumannii,5 µM
same,MIC,Staphylococcus aureus [1],1 µM
same,Survival,Bacillus subtilis [2],0.053%
same,hemolysis at 250 ug/ml,[3],50%
same,MIC,Staphylococcus aureus [4],1 µM
same,MIC,Pseudomonas aeruginosa,9 µM
same,MIC,Bacillus subtilis [5],0.6 µM
same,MIC,Escherichia coli,2 µM
CCCCCC(=O)NCCCC[C@H](NC(=O)[C@H](Cc1c[nH]c2ccccc12)NC(=O)[C@H](CCCNC(=N)N)NC(=O)[C@H](Cc1c[nH]c2ccccc12)NC(=O)[C@H](CCCNC(=N)N)NC(=O)[C@H](Cc1c[nH]c2ccccc12)NC(=O)[C@@H](N)CCCNC(=N)N)C(N)=O (H-RWRWRWK(Hexanoyl)-NH2),MIC,Acinetobacter baumannii,19 µM
same,MIC,Staphylococcus aureus [1],18 µM
same,Survival,Bacillus subtilis [2],0.687%
same,hemolysis at 250 ug/ml,[3],< 10%
same,MIC,Staphylococcus aureus [4],9 µM
same,MIC,Pseudomonas aeruginosa,74 µM
same,MIC,Bacillus subtilis [5],2 µM
same,MIC,Escherichia coli,19 µM
CC(=O)NCCCC[C@H](NC(=O)[C@H](Cc1c[nH]c2ccccc12)NC(=O)[C@H](CCCNC(=N)N)NC(=O)[C@H](Cc1c[nH]c2ccccc12)NC(=O)[C@H](CCCNC(=N)N)NC(=O)[C@H](Cc1c[nH]c2ccccc12)NC(=O)[C@@H](N)CCCNC(=N)N)C(N)=O (H-RWRWRWK(Ac)-NH2),MIC,Acinetobacter baumannii,> 100 µM
same,MIC,Staphylococcus aureus [1],> 100 µM
same,hemolysis at 250 ug/ml,[3],< 10%
same,MIC,Staphylococcus aureus [4],> 100 µM
same,MIC,Pseudomonas aeruginosa,> 100 µM
same,MIC,Bacillus subtilis [5],10 µM
same,MIC,Escherichia coli,> 100 µM
CCCC(=O)NCCCC[C@H](NC(=O)[C@H](Cc1c[nH]c2ccccc12)NC(=O)[C@H](CCCNC(=N)N)NC(=O)[C@H](Cc1c[nH]c2ccccc12)NC(=O)[C@H](CCCNC(=N)N)NC(=O)[C@H](Cc1c[nH]c2ccccc12)NC(=O)[C@@H](N)CCCNC(=N)N)C(N)=O (H-RWRWRWK(Butyryl)-NH2),MIC,Acinetobacter baumannii,> 100 µM
same,MIC,Staphylococcus aureus [1],> 100 µM
same,hemolysis at 250 ug/ml,[3],< 10%
same,MIC,Staphylococcus aureus [4],38 µM
same,MIC,Pseudomonas aeruginosa,> 100 µM
same,MIC,Bacillus subtilis [5],5 µM
same,MIC,Escherichia coli,38 µM
N=C(N)NCCC[C@H](NC(=O)[C@H](Cc1c[nH]c2ccccc12)NC(=O)[C@H](CCCNC(=N)N)NC(=O)[C@H](Cc1c[nH]c2ccccc12)NC(=O)[C@@H](N)CCCNC(=N)N)C(=O)N[C@@H](Cc1c[nH]c2ccccc12)C(N)=O (H-RWRWRW-NH2),MIC,Acinetobacter baumannii,85 µM
same,MIC,Staphylococcus aureus [1],11 µM
same,Survival,Bacillus subtilis [2],2.8%
same,hemolysis at 250 ug/ml,[3],< 10%
same,MIC,Staphylococcus aureus [4],6 µM
same,MIC,Pseudomonas aeruginosa,> 100 µM
same,MIC,Bacillus subtilis [5],3 µM
same,MIC,Escherichia coli,21 µM
CCCCCCCCCCCCCC(=O)NCCCC[C@H](N)C(=O)N[C@@H](CCCNC(=N)N)C(=O)N[C@@H](Cc1c[nH]c2ccccc12)C(=O)N[C@@H](CCCNC(=N)N)C(=O)N[C@@H](Cc1c[nH]c2ccccc12)C(=O)N[C@@H](CCCNC(=N)N)C(=O)N[C@@H](Cc1c[nH]c2ccccc12)C(N)=O (H-K(Myristoyl)RWRWRW-NH2),MIC,Acinetobacter baumannii,35 µM
same,MIC,Staphylococcus aureus [1],9 µM
same,Survival,Bacillus subtilis [2],0.033%
same,hemolysis at 250 ug/ml,[3],> 50%
same,MIC,Staphylococcus aureus [4],17 µM
same,MIC,Pseudomonas aeruginosa,> 100 µM
same,MIC,Bacillus subtilis [5],9 µM
same,MIC,Escherichia coli,35 µM
N=C(N)NCCC[C@H](NC(=O)[C@H](Cc1c[nH]c2ccccc12)NC(=O)[C@H](CCCNC(=N)N)NC(=O)[C@H](Cc1c[nH]c2ccccc12)NC(=O)[C@H](CCCNC(=N)N)NC(=O)[C@@H](N)CCCCN)C(=O)N[C@@H](Cc1c[nH]c2ccccc12)C(N)=O (H-KRWRWRW-NH2),MIC,Acinetobacter baumannii,> 100 µM
same,MIC,Staphylococcus aureus [1],37 µM
same,Survival,Bacillus subtilis [2],7%
same,hemolysis at 250 ug/ml,[3],< 10%
same,MIC,Staphylococcus aureus [4],9 µM
same,MIC,Pseudomonas aeruginosa,> 100 µM
same,MIC,Bacillus subtilis [5],2 µM
same,MIC,Escherichia coli,18 µM
CCCC(=O)NCCCC[C@H](N)C(=O)N[C@@H](CCCNC(=N)N)C(=O)N[C@@H](Cc1c[nH]c2ccccc12)C(=O)N[C@@H](CCCNC(=N)N)C(=O)N[C@@H](Cc1c[nH]c2ccccc12)C(=O)N[C@@H](CCCNC(=N)N)C(=O)N[C@@H](Cc1c[nH]c2ccccc12)C(N)=O (H-K(Butyryl)RWRWRW-NH2),MIC,Acinetobacter baumannii,> 100 µM
same,MIC,Staphylococcus aureus [1],38 µM
same,hemolysis at 250 ug/ml,[3],< 10%
same,MIC,Staphylococcus aureus [4],19 µM
same,MIC,Pseudomonas aeruginosa,> 100 µM
same,MIC,Bacillus subtilis [5],2 µM
same,MIC,Escherichia coli,38 µM
CCCCCCCCCCCC(=O)NCCCC[C@H](N)C(=O)N[C@@H](CCCNC(=N)N)C(=O)N[C@@H](Cc1c[nH]c2ccccc12)C(=O)N[C@@H](CCCNC(=N)N)C(=O)N[C@@H](Cc1c[nH]c2ccccc12)C(=O)N[C@@H](CCCNC(=N)N)C(=O)N[C@@H](Cc1c[nH]c2ccccc12)C(N)=O (H-K(Lauroyl)RWRWRW-NH2),MIC,Acinetobacter baumannii,18 µM
same,MIC,Staphylococcus aureus [1],4 µM
same,Survival,Bacillus subtilis [2],0.011%
same,hemolysis at 250 ug/ml,[3],> 50%
same,MIC,Staphylococcus aureus [4],2 µM
same,MIC,Pseudomonas aeruginosa,> 100 µM
same,MIC,Bacillus subtilis [5],9 µM
same,MIC,Escherichia coli,9 µM
